Target: Ba/F3 V617F cells (Homo sapiens, UniProt O60674, V617F, cells depend on it)
Experiment: Proliferation assay (Cell Titer-Glo, 72 h) utilizing Ba/F3 V617F cells
Format: cell-based, mouse
Settings: Ba/F3 V617F cells, proliferation, level of activity given as class symbol, read-out: IC50 (the source's name)
Summary of the method: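 Ba/F3 V617F cells in RPMI/10% FBS, 1×10^5 cells/mL, exposed in duplicate to 3-fold serial compound dilutions (top 5 mM DMSO stock, diluted 1:250, added as 2× solution in 5% FBS medium) for 72 h at 37 °C. Viability by Cell Titer-Glo luminescence; IC50 reported.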

Ba/F3 V617F cells, sequence (O60674 whole entry V617F): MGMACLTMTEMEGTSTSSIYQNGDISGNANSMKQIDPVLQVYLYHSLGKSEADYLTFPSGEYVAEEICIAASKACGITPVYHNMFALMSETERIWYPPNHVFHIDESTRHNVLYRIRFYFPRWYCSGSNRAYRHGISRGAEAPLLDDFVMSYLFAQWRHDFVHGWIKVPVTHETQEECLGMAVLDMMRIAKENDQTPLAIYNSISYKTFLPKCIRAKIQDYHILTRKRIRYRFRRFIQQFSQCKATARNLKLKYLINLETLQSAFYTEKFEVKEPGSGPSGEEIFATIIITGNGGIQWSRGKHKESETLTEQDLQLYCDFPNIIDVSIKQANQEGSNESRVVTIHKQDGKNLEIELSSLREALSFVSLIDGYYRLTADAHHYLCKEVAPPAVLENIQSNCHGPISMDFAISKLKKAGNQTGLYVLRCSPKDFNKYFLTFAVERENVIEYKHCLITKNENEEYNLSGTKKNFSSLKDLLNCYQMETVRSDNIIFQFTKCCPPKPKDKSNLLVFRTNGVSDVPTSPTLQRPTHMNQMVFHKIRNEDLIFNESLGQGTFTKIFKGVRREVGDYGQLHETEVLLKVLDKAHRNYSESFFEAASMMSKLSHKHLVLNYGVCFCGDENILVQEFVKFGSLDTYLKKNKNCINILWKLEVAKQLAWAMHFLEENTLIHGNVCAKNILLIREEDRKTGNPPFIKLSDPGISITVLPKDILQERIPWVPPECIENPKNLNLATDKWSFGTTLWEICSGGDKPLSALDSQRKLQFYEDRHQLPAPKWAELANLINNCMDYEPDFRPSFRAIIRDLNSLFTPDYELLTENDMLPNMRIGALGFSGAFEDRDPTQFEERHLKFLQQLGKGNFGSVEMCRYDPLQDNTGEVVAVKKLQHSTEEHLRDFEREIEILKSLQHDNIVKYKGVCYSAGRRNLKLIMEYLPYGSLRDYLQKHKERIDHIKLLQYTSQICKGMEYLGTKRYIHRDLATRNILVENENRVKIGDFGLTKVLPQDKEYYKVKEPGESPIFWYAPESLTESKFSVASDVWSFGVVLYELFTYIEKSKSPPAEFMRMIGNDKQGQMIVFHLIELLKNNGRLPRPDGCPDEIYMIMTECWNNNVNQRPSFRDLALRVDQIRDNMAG

Row | SMILES | GI50
1 | Cc1cc(Nc2nccc(-c3ccc(N4CCOCC4)nc3)n2)ccc1N1C2CCC1CC(N1CCOCC1)C2 (stereo not drawn) [compound 284, 4-(6-(morpholin-4-yl)pyridin-3-yl)-N-(3-methyl-4-(3-(morpholin-4-yl)-8-azabicyclo[3.2.1]octan-8-yl)phenyl)pyrimidin-2-amine] | < 1000 nM
2 | Cc1cc(Nc2nccc(-c3ccc(OC4CCOCC4)nc3)n2)ccc1N1C2CCC1CC(N1CCOCC1)C2 (stereo not drawn) [compound 285, 4-(6-(tetrahydropyran-4-yloxy)pyridin-3-yl)-N-(3-methyl-4-(3-(morpholin-4-yl)-8-azabicyclo[3.2.1]octan-8-yl)phenyl)pyrimidin-2-amine] | < 1000 nM
3 | Cc1cc(Nc2nccc(-c3ccc(N4CCOCC4)nc3)n2)ccc1N1C2CCC1CC(N(C)C)C2 (stereo not drawn) [compound 286, 4-(6-(morpholin-4-yl)pyridin-3-yl)-N-(3-methyl-4-(3-(dimethylamino)-8-azabicyclo[3.2.1]octan-8-yl)phenyl)pyrimidin-2-amine] | < 1000 nM

Source: US9624229B2, “Pyrimidine-2-amine compounds and their use as inhibitors of JAK kinases” (Rigel Pharmaceuticals, Inc., priority 2008, dated 2017)
